No end group written: not given here.
What was measured:
Ea.hy926 cells [1] = assay: Ammonia generation assay for gtTGase ligation on endothelial cells; format: cell-based; settings: 4° C.; for NH3 production with TGase isoforms: gtTGase and mTGase, 30 minutes
Method: (§1) The solutions were mixed thoroughly and incubated at 4° C. for 30 minutes under static conditions. The cell supernatant was collected and the cells were washed three times with PBS and subjected to further analysis. The assessment of polymer attachment to endothelial cells are assessed by ammonia assay.
The extent of gtTGase ligation was assessed using an ammonia assay kit (Sigma™, MAK310) and used according to the manufacturer's protocols. This kit is used for the quantitative determination of ammonia (NH3), a side product in the gtTGase reaction.^6 This assay is based on the o-phthalaldehyde method in which the reagent reacts with NH3 producing a fluorescent product (λex=360 nm/λm=450 nm), proportional to the NH3 concentration in the sample.^7,8 Briefly, PBS was supplemented with 5 mM CaCl2 and 3 mM dithiothreitol (DTT). In a 96 well plate, containing either endothelial cells or glycine ethyl ether (GEE, amine donor), Q-tagged polymer (acyl donor) and guinea pig liver transglutaminase (gtTGase, Sigma™ T5398) were added to the PBS solution to a final concentration of 5 mM, 0.5 mM and 0.2 U/mL respectively (Vf=100 μL). The reaction was thoroughly mixed and rocked gently at 4° C. for 30 minutes. The sample was diluted four-fold and a 10 μL aliquot of the reaction mixture was then transferred to a tube containing 90 μL complete ammonia assay reagent and mixed thoroughly. The solution was left to react for 15 minutes at ambient temperature in the dark. The fluorescence intensity was measured at λex=360 nm/λem=450 nm using a spectrophotometer and the quantity of ammonia in solution was calculated according to Eq. 1: […]
EA.hy 926 cells plated for 15 days were washed twice with warm PBS before introducing a reaction cocktail containing 0.5 mM polymer, 5 mM CaCl2, 3 mM DTT and 0.2 U/mL transglutaminase made in DMEM media solution without phenol red. The reaction was incubated at 4° C. for 30 minutes. Then the supernatant was removed and subjected to ammonia generation assay and the cells were washed twice with warm PBS to remove unreacted polymers.

Ea.hy926 cells [2] = assay: Cell viability (MTS assay) of modified cells; format: cell-based
Method: (§2) Cell viability measurements were performed on modified cells after washing with warm PBS twice. Then, the cells were subjected to MTS (3-(4,5-dimethylthiazol-2-yl)-5-(3-carboxymethoxyphenyl)-2-(4-sulfophenyl)-2H-tetrazolium) assay kit (Cell Titer 96 Aqueous One solution Cell Proliferation Assay™) and by following the manufacturer's protocol. All recorded values were normalized to healthy cells untreated with polymers. Platelet activation was performed by PE-labelled anti human […] stain was prepared by diluting 20 times using plasma. An aliquot of each platelet sample was labelled using the diluted PE-labelled anti-human […] solution (1:10 dilution) for 30 minutes at room temperature. Platelets incubated in 0.1 mM TRAP were used as positive control and platelets incubated in PE-labelled IgG were used for non-specific binding control. Each sample was analyzed for 10000 platelet events. Each experiment was replicated using a minimum of 3 donors and each donor was performed in triplicates. For human pancreatic islets, live/dead imaging assay was used for cell viability and DTZ detection assay was used to determine insulin-producing beta cells from mixed cell cultures.

human pancreatic islets = assay: Compatibility of cell surface engineering on pancreatic islets (LIVE/DEAD, DTZ); format: cell-based; settings: 0.5 mM polymer, room temperature, 30 minutes
Method: FIG. 57: Compatibility of cell surface engineering on human pancreatic islet surfaces using gtTGase. Human pancreatic islets were incubated with 0.5 mM Q-tagged polymer, 0.2 U ml-1 gtTGase, 3 mM GSH and 5 mM CaCl2 at room temperature for 30 minutes. Cell viability was assessed using a LIVE/DEAD stain assay and insulin producing activity was assessed by DTZ detection assay.
as §2, with “For human pancreatic islets, live/dead imaging assay was used for cell viability and DTZ detection assay was used to determine insulin-producing beta cells from mixed cell cultures.” left out

EA.hy 926 monolayers = assay: PMS-induced glycocalyx shedding (WGA stain, flow cytometry); format: cell-based; settings: compared to non-sulfated counterparts
Method: EA.hy 926 cells were grown to confluency. Media was replaced, washed with DPBS and incubated with […] NADH, […] PMS (unless otherwise noted) and the indicated concentration of polymer; with PMS being last to be added. […] The cells were then washed extensively, stained using WGA ([…]) for 15 minutes and harvested to be analyzed using flow cytometry. Neuraminidase enzyme was used as a positive control to shed the glycocalyx.

HMEC-1 cell monolayers = assay: Transendothelial protein passage (FITC-labelled BSA); format: cell-based; settings: TNF-α 2000 U/mL, 3 hours; 0.5 mM polymer
platelets = assay: Platelet activation (CD62, flow cytometry); format: cell-based, human; settings: 4° C.
Method: as §1
as §2, with “For human pancreatic islets, live/dead imaging assay was used for cell viability and DTZ detection assay was used to determine insulin-producing beta cells from mixed cell cultures.” left out

[3] = tested on: BALB/c aortic allograft in C57/BL/6 recipient; assay: Serum cytokine array after aortic interposition grafting; format: in vivo, mouse; settings: 2 days and 15 days post-transplant, 0.5 mM LPGS-Q
Method: To assess the immune modulatory effect of enzymatic polymer grafting, an antibody array kit based on a sandwich ELISA principle (Proteome Profiler™, Panel A; R&D Systems™) was used to screen the cytokine and chemokine expression level in sera of animals according to the manufacturer's protocol. Relative expression of 40 murine cytokines and chemokines captured by corresponding antibodies spotted on a nitro-cellulose membrane was determined.
The antibodies for the following cytokines were spotted on the membrane: BLC, C5a, G-CSF, GM-CSF, I-309, Eotaxin, sICAM-1, IFN-g, IL-1a, IL-1b, IL-1ra, IL-2, IL-3, IL-4, IL-5, IL-6, IL-7, IL-10, IL-13, IL-12 p70, IL-16, IL-17 IL-23, IL-27, CXCL10 (IP-10), I-TAC, KC, M-CSF, CCL2 (MCP-1), CCL12 (MCP-5), MIG, CCL3 (MIP-1a), CCL4 (MIP-1b), CXCL2 (MIP-2), CCL5 (RANTES), SDF-1, TARC, TIMP-1, TNF-α, TREM-1. […] Following the blocking step for 1 h at 4° C., a mixture of detection antibody cocktail and 100 μL of serum sample was incubated overnight at 4° C. with the membrane. Captured proteins were labeled with a streptavidin-functionalized IR-Dye (IRDye 680RD Streptavidin; LI-COR) (1:20,000 dilution in 10% bovine serum albumin, 30 min at RT) and scanned using a LI-COR Odyssey Infrared Imaging System™. The software ImageJ™ (Version 1.52s) was used to determine the integrated density of the spots on the array images after background subtraction. […]

[4] = tested on: TNF-α activated Ea.hy926 cells co-cultured with IL-2 activated PBMCs; assay: PBMC-mediated cytotoxicity (LDH assay); settings: polymer ligated to cell surface
Method: EA.hy 926 monolayers were activated using TNF-α and PBMCs were activated using IL-2 as described in PBMC adhesion experiments. Following activation, PBMC was collected and resuspended in DMEM (Phenol free, 5% FBS, pen/strep). PBMCs were then added to activated EA.hy 926 monolayers (modified and unmodified) to a final concentration of 0.15×10^6 cells/mL and left to incubate at 37° C. and 5% CO2 for 18 hour. After treatment, the supernatant was collected and cell debris was removed through centrifugation. LDH content was measured using LDC cytotoxicity assay (Biovision Inc.™). Cytotoxicity was calculated using the equation below;
where, LDHsample is the amount of LDH released from the sample, LDHPBMC is the amount of LDH released from PBMC samples not subjected to EA.hy 926 monolayers, LDHalive is the amount of LDH released from EA.hy 926 monolayers not subjected to PBMCs, and LDHdead is the amount of LDH released of EA.hy926 monolayers treated with RIPA buffer for 10 minutes at room temperature.

[5] = tested on: IL-2 activated PBMCs on TNF-α activated Ea.hy926 monolayers; assay: PBMC adhesion to endothelial surfaces; format: cell-based, human
Method: Confluent Ea.hy926 monolayers seeded in a 48 well plate (30,000 cells/well) were activated with TNF-α (2000 U/mL, 3 hours). To obtain PBMCs, EDTA anticoagulated blood from healthy donors was subjected to ficoll density gradient centrifugation Histopaque™-1077 (Sigma Aldrich™). PBMCs were cultured for 24 h in RPMI-1640 containing 10% FBS (v/v), 1000 U/mL recombinant human IL-2 (Cedarlane™)^11 and 1% P/S. Prior to fluorescent labelling, cultured PBMCs were tested for absence of platelets by labelling an aliquot of cells with FITC-labelled anti-human […] (1:200 Beckman Coulter™) and analyzed by flow cytometry (CytoFLEX™, Beckman Coulter™). PBMCs containing <1% platelets were implemented for further study. The PBMC composition was also measured using a hematological analyzer (XN-550™ automated hematology analyzer, Sysmex Canada Inc.™). Following IL-2 treatment the typical composition of the PBMCs were ˜80% lymphocytes, 5% immature granulocytes, 2% basophils and 13% monocytes. […] PMBC adhesion was quantified by lysing the cells with RIPA buffer, spinning at 15,000 g to remove cell debris and measuring the fluorescent intensity of the CMFDA Dye in the lysate (λex/λem=492/517 nm using a plate reader (Spectramax3™, Molecular Devices™).

Substance	NH3 production with TGase isoforms (Ea.hy926 cells [1])	cell viability with TGase isoforms (Ea.hy926 cells [2])	cell viability and insulin producing activity (human pancreatic islets)	NH3 production (surface ligation efficiency) (Ea.hy926 cells [1]; 0.5 mM polymer, gtTGase, 30 min)	retention of the glycocalyx structure after exposure to superoxide anions (EA.hy 926 monolayers)	permeability of the monolayer after TNF-α activation (HMEC-1 cell monolayers)	platelet activation (CD62 surface markers) (platelets)	cytokine profile of sera of recipient mice [3]	PBMC-mediated endothelial cell death, in words [4]	PBMC adhesion, in words [5]	cell metabolic activity after bioconjugation (Ea.hy926 cells [2])	cell viability under oxidative stress (Ea.hy926 cells [2]; cells grown 15 days, superoxide radicals)
GQQQLGGGGG-PEG: Q-tagged PEG polymer used to compare TGase isoforms (also: conjugated to PEG, site not given here) [reference compound]	favourable results	favourable results	–	–	–	–	–	–	–	–	–	–
Linear polyglycerol sulfate glutamine [LPGS-Q]	–	–	still produce viable cells	higher ammonia production than its non-sulfated counterparts	significantly larger retention of the glycocalyx structure	reduce non-specific macromolecule passage	did not induce platelet activation	beneficial anti-inflammatory properties post-transplantation	reducing PBMC-mediated cytotoxicity	evading recognition and subsequent adhesion	without affecting cell metabolic activity	rescue of the cells viability
WLAQRPH-PEG: Q-tagged PEG polymer used to compare TGase isoforms (also: conjugated to PEG, site not given here) [reference compound]	favourable results	favourable results	–	–	–	–	–	–	–	–	–	–

— patent publication US20250059499A1, “CELL-SURFACE ENGINEERING COMPOSITIONS AND METHODS FOR THE PREVENTION OF IMMUNE REJECTION” (THE UNIVERSITY OF BRITISH COLUMBIA, priority 2021, published 2025)
